# Patent US6407206B1, “Peptides, methods for assaying human pepsinogen I or human pepsin I and assay kits” (Ono Pharmaceutical Co., Ltd., priority 1996, dated 2002)
# Square brackets hold non-standard residues; d marks the D form. Ends that are not written are not given here. * marks the point of attachment. Phe(4-NO2) = N[C@@H](Cc1ccc([N+](=O)[O-])cc1)C(=O)O; pNA = O=[N+]([O-])c1ccc(N*)cc1; Nle = CCCC[C@H](N)C(=O)O
# Columns and labels:
# Type in all cases: biochemical
# human pepsin II [1] = target: T1, human pepsin II (Homo sapiens, UniProt P20142); experiment: Digestion of the substrate by human pepsin II, assay by coloring p-NA (aminopeptidase M, absorbance at 405 nm); conditions: substrate 0.5 mM, 37° C.
# T1 sequence (P20142 60-388): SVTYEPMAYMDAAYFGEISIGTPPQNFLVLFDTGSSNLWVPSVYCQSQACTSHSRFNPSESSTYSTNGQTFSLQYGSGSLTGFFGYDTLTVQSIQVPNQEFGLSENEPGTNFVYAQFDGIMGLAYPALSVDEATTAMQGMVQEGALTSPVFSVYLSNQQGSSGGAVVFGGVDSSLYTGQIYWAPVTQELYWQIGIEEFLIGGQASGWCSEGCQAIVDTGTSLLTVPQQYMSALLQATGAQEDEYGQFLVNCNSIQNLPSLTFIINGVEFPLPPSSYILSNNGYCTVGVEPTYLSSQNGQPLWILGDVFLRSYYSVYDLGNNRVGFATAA
# Experimental: (§1) Formic acid buffer or glycine buffer (pH2.0˜3.0) containing each peptide (0.5 mM) prepared in Example 1˜5 (a)
# (§2) An aqueous solution of human pepsin I or human pepsin II (0.01 mg/ml)
# (§3) Aminopeptidase M (marketed from Beringer Manheim Co., derived from pig kidney) was dissolved into 1M Tris-HCl buffer (pH9.0) to be at concentration of 2U/I.
# (§4) (2) Assay by Coloring p-NA
# (§5) Enzyme solution I (0.1 ml) was added to Reagent (1.0 ml). After incubation of the mixture at 37° C. for 10 minutes, Enzyme solution II (0.05 ml) was added to the mixture solution (0.25 ml). After incubation of the mixture at 37° C. for 5 minutes, the increase in absorbance at 405 nm (Es) was determined. On the other hand, reagent blank value (E(BL)) was determined by the same procedure as above using purified water. According to the following, the increase in absorbance (E) was calculated.
# human pepsin I [2] = experiment: Digestion of the substrate by human pepsin I, assay by HPLC (released H-Y-pNA); conditions: for ratio of relative activity of pepsin I/pepsin II: calculated according to the result from assay by HPLC; for Activitry of pepsin, Determination by HPLC, pepsin I: pepsin 909 ng/ml, substrate 0.5 mM, 37° C.
# Experimental: as §1, §2
# (§6) Enzyme solution I (0.1 ml) was added to Reagent (1.0 ml). After incubation of the mixture at 37° C. for 10, 30, 60 minutes, the mixture solution (0.3 ml) was collected. To the collected solution, 2N—NaOH (0.025 ml) was added to terminate the reaction. After addition of 2N—HCl (0.025 ml) to the mixture, protein was removed by the ultrafiltration. The assaying H-Y-pNA (Nle-pNA: Example 1 and 2; Tyr-pNA: Example 3; Phe-pNA: Example 4; Phe(NO2)-pNA: Example 5) which was released after digesting by human pepsin in the obtained solution was carried out by HPLC using C18 column.
# (§7) The ratio of pepsin I/pepsin II was calculated according to the result from assay by HPLC. Such assay is carried out to confirm that a substrate was digested by pepsin I or pepsin II correctly and that H-Y-pNA was released.
# human pepsin II [3] = target: T1, human pepsin II; experiment: Digestion of the substrate by human pepsin II, assay by HPLC (released H-Y-pNA); conditions: pepsin 909 ng/ml, substrate 0.5 mM, 37° C.
# Experimental: as §1, §2, §6, §7
# human pepsin I [4] = experiment: Digestion of the substrate by human pepsin I, assay by coloring p-NA (aminopeptidase M, absorbance at 405 nm); conditions: substrate 0.5 mM, 37° C.
# Experimental: as §1, §2, §3, §4, §5
# [5] = reaction pH 2.0, pepsin 909 ng/ml
# [6] = reaction pH 3.0, pepsin 909 ng/ml
substance,measurement,setting,value
LysProIleGluPheTyr-pNA.2CF3COOH (KPIEFY-pNA; also: TFA salt (2CF3COOH)) [Example 3],"Activitry of pepsin, Determination by p-NA, pepsin II",human pepsin II [1]; [5],30.8 mABS/10 min · 909 ngEnz/ml
same,ratio of relative activity of pepsin I/pepsin II,human pepsin I [2]; reaction pH 2.0,46.2
same,"Activitry of pepsin, Determination by HPLC, pepsin I",human pepsin I [2]; reaction pH 2.0,17.1 μM/min · 909 ngEnz/ml
same,"Activitry of pepsin, Determination by HPLC, pepsin II",human pepsin II [3]; reaction pH 2.0,0.37 μM/min · 909 ngEnz/ml
same,"Activitry of pepsin, Determination by p-NA, pepsin I",human pepsin I [4]; [5],1425.0 mABS/10 min · 909 ngEnz/ml
LysProIleGluPheNle-pNA.2CF3COOH (KPIEF[Nle]-pNA; also: trifluoroacetate salt (2CF3COOH)) [Example 2],"Activitry of pepsin, Determination by p-NA, pepsin II",human pepsin II [1]; [6],30.8 mABS/10 min · 909 ngEnz/ml
same,ratio of relative activity of pepsin I/pepsin II,human pepsin I [2]; reaction pH 3.0,23.2
same,"Activitry of pepsin, Determination by HPLC, pepsin I",human pepsin I [2]; reaction pH 3.0,8.6 μM/min · 909 ngEnz/ml
same,"Activitry of pepsin, Determination by HPLC, pepsin II",human pepsin II [3]; reaction pH 3.0,0.37 μM/min · 909 ngEnz/ml
same,"Activitry of pepsin, Determination by p-NA, pepsin I",human pepsin I [4]; [6],716.7 mABS/10 min · 909 ngEnz/ml
N^α-AcLysProIleGlu-Phe(NO2)-Nle-pNA.CF3COOH (Ac-KPIE[Phe(4-NO2)][Nle]-pNA; also: TFA salt) [Example 5(a)],"Activitry of pepsin, Determination by p-NA, pepsin II",human pepsin II [1]; [5],57.3 mABS/10 min · 909 ngEnz/ml
same,ratio of relative activity of pepsin I/pepsin II,human pepsin I [2]; reaction pH 2.0,52.8
same,"Activitry of pepsin, Determination by HPLC, pepsin I",human pepsin I [2]; reaction pH 2.0,36.4 μM/min · 909 ngEnz/ml
same,"Activitry of pepsin, Determination by HPLC, pepsin II",human pepsin II [3]; reaction pH 2.0,0.69 μM/min · 909 ngEnz/ml
same,"Activitry of pepsin, Determination by p-NA, pepsin I",human pepsin I [4]; [5],3036.2 mABS/10 min · 909 ngEnz/ml
N^α-Ac-LysProIleGluPheNle-pNA.CF3COOH (Ac-KPIEF[Nle]-pNA; also: TFA salt) [Example 1],"Activitry of pepsin, Determination by p-NA, pepsin II",human pepsin II [1]; [5],45.8 mABS/10 min · 909 ngEnz/ml
same,ratio of relative activity of pepsin I/pepsin II,human pepsin I [2]; reaction pH 2.0,95.8
same,"Activitry of pepsin, Determination by HPLC, pepsin I",human pepsin I [2]; reaction pH 2.0,52.7 μM/min · 909 ngEnz/ml
same,"Activitry of pepsin, Determination by HPLC, pepsin II",human pepsin II [3]; reaction pH 2.0,0.55 μM/min · 909 ngEnz/ml
same,"Activitry of pepsin, Determination by p-NA, pepsin I",human pepsin I [4]; [5],4391.7 mABS/10 min · 909 ngEnz/ml
LysProIleGluPhePhe(NO2)-pNA.2CF3COOH (KPIEF[Phe(4-NO2)]-pNA; also: 2 TFA salt) [Example 5],"Activitry of pepsin, Determination by p-NA, pepsin II",human pepsin II [1]; [6],5.8 mABS/10 min · 909 ngEnz/ml
same,ratio of relative activity of pepsin I/pepsin II,human pepsin I [2]; reaction pH 3.0,17.1
same,"Activitry of pepsin, Determination by HPLC, pepsin I",human pepsin I [2]; reaction pH 3.0,1.2 μM/min · 909 ngEnz/ml
same,"Activitry of pepsin, Determination by HPLC, pepsin II",human pepsin II [3]; reaction pH 3.0,0.07 μM/min · 909 ngEnz/ml
same,"Activitry of pepsin, Determination by p-NA, pepsin I",human pepsin I [4]; [6],100.0 mABS/10 min · 909 ngEnz/ml
LysProIleGluPhePhe-pNA -2CF3COOH (KPIEFF-pNA; also: trifluoroacetate salt (2CF3COOH)) [Example 4],"Activitry of pepsin, Determination by p-NA, pepsin II",human pepsin II [1]; [6],13.3 mABS/10 min · 909 ngEnz/ml
same,ratio of relative activity of pepsin I/pepsin II,human pepsin I [2]; reaction pH 3.0,68.1
same,"Activitry of pepsin, Determination by HPLC, pepsin I",human pepsin I [2]; reaction pH 3.0,10.9 μM/min · 909 ngEnz/ml
same,"Activitry of pepsin, Determination by HPLC, pepsin II",human pepsin II [3]; reaction pH 3.0,0.16 μM/min · 909 ngEnz/ml
same,"Activitry of pepsin, Determination by p-NA, pepsin I",human pepsin I [4]; [6],908.3 mABS/10 min · 909 ngEnz/ml
